In data set [1] the target is High affinity nerve growth factor receptor (Homo sapiens, UniProt P04629). The data set can be described thus: Inhibition of wild type partial length human TRKA (G475 to G790 residues) expressed in mammalian expression system using Ulight-p70S6K peptide substrate incubated for 90 mins in presence of ATP by HTRF assay. Background: In TR-FRET formats the signal depends on donor and acceptor labels being close together.

Data set [2] concerns the target Mast/stem cell growth factor receptor Kit (Homo sapiens, UniProt P10721). Put plainly: Inhibition of wild type partial length human KIT (I571 to D952 residues) expressed in bacterial expression system using Ulight-p70S6K peptide substrate incubated for 90 mins in presence of ATP by HTRF assay.
In data set [3] the target is Platelet-derived growth factor receptor beta (Homo sapiens, UniProt P09619). Put plainly: Inhibition of wild type partial length human PDGFRbeta (V582 to Y1009 residues) expressed in bacterial expression system using Ulight-p70S6K peptide substrate incubated for 90 mins in presence of ATP by HTRF assay.
Sequence of Platelet-derived growth factor receptor beta (P09619 whole entry, the tested form may be a part): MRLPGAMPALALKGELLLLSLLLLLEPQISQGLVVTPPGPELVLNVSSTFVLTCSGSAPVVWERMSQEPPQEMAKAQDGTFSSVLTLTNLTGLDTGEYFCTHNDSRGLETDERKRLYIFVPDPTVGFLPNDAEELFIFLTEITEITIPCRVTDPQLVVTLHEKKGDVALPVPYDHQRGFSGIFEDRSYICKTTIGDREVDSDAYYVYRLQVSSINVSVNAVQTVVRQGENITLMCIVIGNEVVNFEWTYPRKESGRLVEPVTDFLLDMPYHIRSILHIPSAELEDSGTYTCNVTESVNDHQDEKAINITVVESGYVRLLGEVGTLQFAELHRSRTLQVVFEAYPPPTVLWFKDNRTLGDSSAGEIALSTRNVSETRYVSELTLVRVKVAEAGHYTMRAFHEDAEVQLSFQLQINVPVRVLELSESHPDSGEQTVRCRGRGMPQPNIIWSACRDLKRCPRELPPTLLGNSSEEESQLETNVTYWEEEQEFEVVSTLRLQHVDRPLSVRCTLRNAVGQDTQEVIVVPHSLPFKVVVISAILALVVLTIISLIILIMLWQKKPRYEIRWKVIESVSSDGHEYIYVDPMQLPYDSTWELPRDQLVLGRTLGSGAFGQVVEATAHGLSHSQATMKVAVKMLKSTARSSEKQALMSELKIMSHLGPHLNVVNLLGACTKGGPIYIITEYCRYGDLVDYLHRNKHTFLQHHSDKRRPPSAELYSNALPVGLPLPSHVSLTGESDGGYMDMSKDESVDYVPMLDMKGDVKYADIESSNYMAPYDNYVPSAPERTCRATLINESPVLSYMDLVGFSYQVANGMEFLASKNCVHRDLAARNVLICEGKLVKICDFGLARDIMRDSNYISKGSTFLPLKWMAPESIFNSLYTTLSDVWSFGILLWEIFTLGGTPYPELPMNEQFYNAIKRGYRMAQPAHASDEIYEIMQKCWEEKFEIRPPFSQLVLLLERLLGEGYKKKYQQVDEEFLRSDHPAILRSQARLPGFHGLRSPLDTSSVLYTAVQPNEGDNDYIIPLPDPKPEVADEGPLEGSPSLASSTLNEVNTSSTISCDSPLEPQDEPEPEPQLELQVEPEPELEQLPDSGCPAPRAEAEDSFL
Data set [4] can be described thus: Apparent permeability in human Caco-2 cells at 50 uM incubated for 120 mins by LC-MS/MS analysis. It is filed as ADME, cell-based. In general terms: Caco-2 monolayers are a common model of the intestinal barrier.
Data set [5] in a line: Solubility of compound in FaSSIF by HPLC assay. Format: physicochemical.
Data set [6] can be described thus: Solubility of compound in SGF by HPLC assay. Format: physicochemical.
The next data set concerns the target Cytochrome P450 3A4 (Homo sapiens, UniProt P08684). Put plainly: Inhibition of human liver microsomes CYP3A4 using midazolam or testosterone as substrate in presence of NADPH regenerating system by LC-MS/MS analysis. Also noted: species or system Microsome. A general note: Microsomes from liver hold many membrane-bound enzymes, among them those of drug oxidation.

Data set [7] is described as follows: Clearance in Sprague-Dawley rat assessed as hepatic blood flow at 0.73 mg/kg, iv measured upto 24 hrs by LC-MS/MS analysis. Format: ADME, organism-based. To be noted: in vivo.
The nature of data set [8]: Volume of distribution at steady state in Sprague-Dawley rat at 0.73 mg/kg, iv measured upto 24 hrs by LC-MS/MS analysis. It is filed as ADME, organism-based. The following applies: in vivo, read-out: Vdss.
Data set [9] is described as follows: Half life in Sprague-Dawley rat at 0.73 mg/kg, iv measured upto 24 hrs by LC-MS/MS analysis. To be noted: in vivo. It is filed as ADME, organism-based.
A short description of data set [10]: Cmax in Sprague-Dawley rat at 3.1 mg/kg, po measured upto 24 hrs by LC-MS/MS analysis. Format: ADME, organism-based. Also noted: time < 24 hrs, dose 3.1 mg/kg, route po. The following applies: in vivo.
A short description of data set [11]: AUC in Sprague-Dawley rat at 3.1 mg/kg, po measured upto 24 hrs by LC-MS/MS analysis. It is filed as ADME, organism-based. On the set-up: time < 24 hrs, dose 3.1 mg/kg, route po. The following applies: in vivo.
The nature of data set [12]: Oral bioavailability in Sprague-Dawley rat at 3.1 mg/kg measured upto 24 hrs by LC-MS/MS analysis. Format: ADME, organism-based. The following applies: in vivo.
The target of data set [13] is Fibroblast growth factor receptor 2 (Homo sapiens, UniProt P21802). Put plainly: Inhibition of N-terminal GST tagged recombinant human FGFR2 (400 to 821 residues) expressed in an Sf9 infected baculovirus expression system using biotin-EQEDEPEGDYFEWLE-amide as substrate preincubated for 5 to 10 mins followed by substrate addition and measured after 1 hr by HTRF assay.
Sequence of Fibroblast growth factor receptor 2 (P21802 whole entry, the tested form may be a part): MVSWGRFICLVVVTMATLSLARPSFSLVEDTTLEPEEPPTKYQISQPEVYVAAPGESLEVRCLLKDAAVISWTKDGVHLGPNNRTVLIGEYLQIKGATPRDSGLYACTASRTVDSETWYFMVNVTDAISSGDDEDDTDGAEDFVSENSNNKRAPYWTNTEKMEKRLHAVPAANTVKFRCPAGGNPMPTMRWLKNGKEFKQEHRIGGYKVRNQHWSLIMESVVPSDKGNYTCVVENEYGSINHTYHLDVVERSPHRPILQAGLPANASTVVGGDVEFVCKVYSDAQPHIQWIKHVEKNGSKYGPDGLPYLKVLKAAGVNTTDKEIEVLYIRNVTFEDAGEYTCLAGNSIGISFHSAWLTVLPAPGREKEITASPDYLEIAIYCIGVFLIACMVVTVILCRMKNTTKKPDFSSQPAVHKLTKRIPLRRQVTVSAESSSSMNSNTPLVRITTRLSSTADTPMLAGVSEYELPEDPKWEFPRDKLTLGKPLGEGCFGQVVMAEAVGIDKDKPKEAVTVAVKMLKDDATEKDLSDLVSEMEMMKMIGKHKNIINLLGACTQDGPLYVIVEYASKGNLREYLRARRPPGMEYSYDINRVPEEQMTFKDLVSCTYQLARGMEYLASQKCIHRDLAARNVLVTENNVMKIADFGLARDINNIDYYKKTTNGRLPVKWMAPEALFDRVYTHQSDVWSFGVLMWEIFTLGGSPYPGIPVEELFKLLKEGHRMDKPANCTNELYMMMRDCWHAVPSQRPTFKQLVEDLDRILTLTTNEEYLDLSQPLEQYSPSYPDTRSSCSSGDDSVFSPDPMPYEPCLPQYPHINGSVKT

In another data set the target is CYP3A4 (Homo sapiens, UniProt P08684). The data set can be described thus: Inhibition of human liver microsomes CYP3A4 at 5 uM using midazolam or testosterone as substrate in presence of NADPH regenerating system by LC-MS/MS analysis relative to control. Format: ADME, Microsome. The following applies: probe midazolam or testosterone.
Sequence of CYP3A4 (P08684 whole entry, the tested form may be a part): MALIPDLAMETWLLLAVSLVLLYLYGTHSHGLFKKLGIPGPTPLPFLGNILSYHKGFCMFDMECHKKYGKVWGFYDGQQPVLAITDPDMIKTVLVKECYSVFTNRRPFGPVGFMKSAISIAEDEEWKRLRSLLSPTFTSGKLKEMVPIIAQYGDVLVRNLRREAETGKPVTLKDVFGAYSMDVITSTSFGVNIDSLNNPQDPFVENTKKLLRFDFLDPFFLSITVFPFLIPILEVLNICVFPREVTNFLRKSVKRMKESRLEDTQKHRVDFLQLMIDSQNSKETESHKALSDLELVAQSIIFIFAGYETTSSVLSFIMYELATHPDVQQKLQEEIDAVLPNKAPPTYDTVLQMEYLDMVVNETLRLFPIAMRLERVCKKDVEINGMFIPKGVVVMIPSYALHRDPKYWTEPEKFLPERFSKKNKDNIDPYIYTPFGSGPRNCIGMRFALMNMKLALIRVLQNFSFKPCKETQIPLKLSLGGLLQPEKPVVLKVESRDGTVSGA
In data set [14] the target is Fibroblast growth factor receptor 4 (Homo sapiens, UniProt P22455). Put plainly: Inhibition of recombinant human FGFR4 (460 to 802 residues) using biotin-EQEDEPEGDYFEWLE-amide as substrate preincubated for 5 to 10 mins followed by substrate addition and measured after 1 hr by HTRF assay.
Sequence of Fibroblast growth factor receptor 4 (P22455 whole entry, the tested form may be a part): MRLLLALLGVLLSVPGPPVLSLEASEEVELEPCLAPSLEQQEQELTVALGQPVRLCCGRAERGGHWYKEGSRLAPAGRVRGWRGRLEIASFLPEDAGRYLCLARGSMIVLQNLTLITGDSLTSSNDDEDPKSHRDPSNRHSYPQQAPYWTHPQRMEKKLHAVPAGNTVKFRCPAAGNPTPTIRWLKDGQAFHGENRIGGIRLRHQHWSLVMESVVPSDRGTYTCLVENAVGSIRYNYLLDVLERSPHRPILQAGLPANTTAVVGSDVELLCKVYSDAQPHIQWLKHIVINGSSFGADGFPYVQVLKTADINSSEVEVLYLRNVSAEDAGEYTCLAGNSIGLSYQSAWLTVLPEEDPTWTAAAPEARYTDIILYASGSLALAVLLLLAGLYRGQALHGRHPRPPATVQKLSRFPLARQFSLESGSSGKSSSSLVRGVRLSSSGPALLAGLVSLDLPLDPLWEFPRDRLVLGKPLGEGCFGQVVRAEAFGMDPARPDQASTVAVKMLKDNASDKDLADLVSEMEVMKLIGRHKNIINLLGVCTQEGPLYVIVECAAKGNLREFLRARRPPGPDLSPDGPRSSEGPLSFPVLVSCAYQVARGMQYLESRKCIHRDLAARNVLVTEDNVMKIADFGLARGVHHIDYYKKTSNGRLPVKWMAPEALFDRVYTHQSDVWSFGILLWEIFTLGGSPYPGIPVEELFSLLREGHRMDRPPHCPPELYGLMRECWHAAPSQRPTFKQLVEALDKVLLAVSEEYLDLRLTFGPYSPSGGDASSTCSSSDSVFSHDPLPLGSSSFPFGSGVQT
In the next data set the test system is Mus musculus. Put plainly: In vivo inhibition of ERK phosphorylation in human UMUC14 cells xenografted with NSG mouse at 100 mg/kg, po measured after 2 hrs by MSD assay. It is filed as functional, organism-based.

Values after ≈ are worked out from the molar mass of the structure shown. Active and inactive are the calls of the source. The calls are words filed in the database; no cut-off is given here.

Sequence of High affinity nerve growth factor receptor (P04629 whole entry, the tested form may be a part): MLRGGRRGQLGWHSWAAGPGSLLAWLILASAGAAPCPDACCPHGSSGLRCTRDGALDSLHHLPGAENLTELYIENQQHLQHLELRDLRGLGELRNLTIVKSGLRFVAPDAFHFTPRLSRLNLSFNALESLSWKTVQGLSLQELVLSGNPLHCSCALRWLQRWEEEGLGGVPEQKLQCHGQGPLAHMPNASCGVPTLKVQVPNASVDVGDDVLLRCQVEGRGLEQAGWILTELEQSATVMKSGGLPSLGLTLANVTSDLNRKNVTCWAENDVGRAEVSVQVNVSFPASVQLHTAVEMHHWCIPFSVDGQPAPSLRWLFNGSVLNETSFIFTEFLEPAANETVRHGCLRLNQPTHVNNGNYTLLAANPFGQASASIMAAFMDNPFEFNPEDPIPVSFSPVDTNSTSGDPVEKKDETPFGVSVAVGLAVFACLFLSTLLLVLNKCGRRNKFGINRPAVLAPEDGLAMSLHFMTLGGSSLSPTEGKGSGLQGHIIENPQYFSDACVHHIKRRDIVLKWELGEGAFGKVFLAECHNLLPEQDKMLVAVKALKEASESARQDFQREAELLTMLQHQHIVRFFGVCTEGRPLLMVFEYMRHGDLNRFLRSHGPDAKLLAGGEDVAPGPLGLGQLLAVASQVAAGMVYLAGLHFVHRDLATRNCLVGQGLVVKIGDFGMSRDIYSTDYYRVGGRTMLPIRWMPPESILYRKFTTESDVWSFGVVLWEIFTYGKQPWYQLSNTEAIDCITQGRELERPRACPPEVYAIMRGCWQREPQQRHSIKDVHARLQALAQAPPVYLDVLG
Sequence of Cytochrome P450 3A4 (P08684 whole entry): as the sequence (P08684 whole entry, the tested form may be a part) above
Sequence of Mast/stem cell growth factor receptor Kit (P10721 whole entry, the tested form may be a part): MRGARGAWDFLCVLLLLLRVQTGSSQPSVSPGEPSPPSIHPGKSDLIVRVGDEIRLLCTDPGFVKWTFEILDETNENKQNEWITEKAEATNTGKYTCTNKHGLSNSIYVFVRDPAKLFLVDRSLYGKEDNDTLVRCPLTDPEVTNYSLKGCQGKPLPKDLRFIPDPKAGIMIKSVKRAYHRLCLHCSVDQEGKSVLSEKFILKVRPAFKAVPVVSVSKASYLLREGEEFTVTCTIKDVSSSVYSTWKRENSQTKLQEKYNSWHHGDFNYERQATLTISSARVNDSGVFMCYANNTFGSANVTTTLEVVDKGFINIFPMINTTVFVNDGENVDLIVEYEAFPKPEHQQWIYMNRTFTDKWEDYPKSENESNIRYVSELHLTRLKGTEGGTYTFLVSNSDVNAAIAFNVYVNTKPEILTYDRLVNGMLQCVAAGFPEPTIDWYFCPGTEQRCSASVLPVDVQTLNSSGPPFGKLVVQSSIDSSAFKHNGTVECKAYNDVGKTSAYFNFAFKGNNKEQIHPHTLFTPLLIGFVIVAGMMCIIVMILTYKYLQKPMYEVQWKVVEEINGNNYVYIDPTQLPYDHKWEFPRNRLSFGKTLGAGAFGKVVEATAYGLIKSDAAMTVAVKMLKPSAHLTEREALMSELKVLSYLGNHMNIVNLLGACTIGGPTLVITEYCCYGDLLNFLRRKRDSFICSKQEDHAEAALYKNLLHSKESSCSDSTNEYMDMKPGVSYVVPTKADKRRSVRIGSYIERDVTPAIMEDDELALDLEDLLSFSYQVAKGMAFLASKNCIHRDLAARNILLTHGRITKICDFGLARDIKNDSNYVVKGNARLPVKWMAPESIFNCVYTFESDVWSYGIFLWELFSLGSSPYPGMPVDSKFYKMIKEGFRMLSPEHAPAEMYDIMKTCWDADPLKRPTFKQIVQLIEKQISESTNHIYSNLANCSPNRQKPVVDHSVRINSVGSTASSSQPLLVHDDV

A word on the IC50: it is the concentration at which inhibition is half-maximal. The term Papp denotes the rate of passage across a membrane or cell layer, normalised by area and donor concentration. The term solubility denotes the dissolved amount per volume that the medium holds. Read a low solubility as little dissolved substance. The half-life is how long it takes for the measured level to halve. Lower therefore signals fast loss. One may read the Cmax as the peak of the concentration-time curve. By AUC is commonly meant concentration integrated over time. Read a low AUC as less exposure. In general, bioavailability refers to dose-corrected exposure relative to a reference, in per cent. Regarding `CNC(=O)c1cc(F)c(F)c(-c2cnc3cc(-c4cnn(C)c4)c(O[C@H]4CCOC4)nn23)c1`, the IC50 in data set [1] worked out at 285 nM; in data set [2], 1450 nM; in data set [3], 1740 nM; at Cytochrome P450 3A4 it was 3900 nM. Also, in data set [4], the Papp at 2 h, 50 µM amounted to 5.7 ×10⁻⁶ cm/s. The values for the solubility in data set [5] and in data set [6] were 118 µg/mL (≈ 260 µM) and greater than 400 µg/mL, respectively. Moreover, in [7], the QH turned out to be 3.3%. For the same molecule, the Vd in [8] is 0.35 L/kg. Moreover, the half-life in data set [9] is 5.3 h. For the same molecule, the Cmax in data set [10] was determined as 6.17 µM. In addition, the AUC at 24 h in data set [11] is 33.6 µM·h. The bioavailability in [12] was determined as 54%.

Turning to `[2H]C([2H])([2H])NC(=O)c1cncc(-c2cnn3cc(-c4ccn(C(C)C)n4)c(N[C@H]4CCOC4)nc23)c1`, the IC50 in data set [13] was found to be 0.2 nM.

For `CCNC(=O)c1cncc(-c2cnn3cc(-c4cnn(CC)c4)c(O[C@H]4CCOC4)nc23)c1`, the Papp at 2 h, 50 µM in data set [4] turned out to be 0.6 ×10⁻⁶ cm/s. In addition, the IC50 on Cytochrome P450 3A4 was greater than 25000 nM.

Consider `CNC(=O)c1cc(C)cc(-c2cnc3cc(-c4cnn(C(C)C)c4)c(O[C@H]4CCOC4)nn23)c1`, for which the IC50 in data set [1] came out at 363 nM; in data set [2] it was 22 nM; in data set [3], 126 nM.

`CNC(=O)c1cccc(-c2cnc3cc(-c4cnn(C)c4)c(O[C@H]4CCOC4)nn23)c1`: the IC50 in data set [1] worked out at 118 nM; in data set [2] it was 82 nM; in data set [3], 66 nM.

Usually inhibition stands for the relative decrease from the control value, in per cent. Take `CNC(=O)c1cncc(-c2cnn3cc(-c4cnn(C)c4)c(OC4CCOC4)nc23)c1` (racemic): at CYP3A4, the inhibition at 5 µM worked out at 15%. The apparent permeability (Papp) at 2 h, 50 µM in data set [4] was found to be 0.2 ×10⁻⁶ cm/s. Besides, the IC50 at Cytochrome P450 3A4 was greater than 5000 nM.

`CNC(=O)c1cc(-c2cnc3cc(-c4cnn(C)c4)c(O[C@H]4CCOC4)nn23)c(F)c(C(F)F)c1`: the IC50 is 443 nM in data set [1], 619 nM in data set [2] and 800 nM in [3].

With `CNC(=O)c1cccc(-c2cnc3cc(-c4cnn(C)c4)c(OC)nn23)c1`, the IC50 stood at 58 nM in [1] and 38 nM in [3].

`[2H]C([2H])([2H])NC(=O)c1cncc(-c2cnn3cc(-c4cnn(C(C)C)c4)c(O[C@H]4CCOC4)nc23)c1`: in data set [4], the Papp at 2 h, 50 µM worked out at 2 ×10⁻⁶ cm/s. Further, the values for the solubility in data set [5] and in data set [6] were 18 µg/mL (≈ 40 µM) and 679 µg/mL (≈ 1510 µM), respectively. Also, the half-inhibitory concentration (IC50) was greater than 25000 nM at Cytochrome P450 3A4 and 145 nM in data set [14]. Also, the QH in [7] amounted to 35%. Besides, the Vd in data set [8] is 1.6 L/kg. The same molecule showed a half-life in data set [9] of 1.7 h. In data set [10], the Cmax turned out to be 2.3 µM. Further, the area under the curve (AUC) at 24 h in [11] was determined as 5.11 µM·h. The molecule also showed a bioavailability in [12] of 82%.

With `CNC(=O)c1cncc(-c2cnn3cc(-c4cnn(C(C)C)c4)c(O[C@H]4CCOC4)nc23)c1`, the Papp at 2 h, 50 µM in data set [4] was determined as 1.5 ×10⁻⁶ cm/s. Also, the solubility was 17 µg/mL (≈ 38 µM) in data set [5] and greater than 400 µg/mL in data set [6]. Also, at Cytochrome P450 3A4, the IC50 was found to be 9000 nM. For the same molecule, in the data set with Mus musculus, the result was Active.

Turning to `CNC(=O)c1cc(C)c(F)c(-c2cnc3cc(-c4cnn(C)c4)c(O[C@H]4CCOC4)nn23)c1`, the half-inhibitory concentration (IC50) in data set [1] was 293 nM; in data set [2], 1660 nM; in data set [3] it was 1390 nM.

On to `CNC(=O)c1ccc(F)c(-c2cnc3cc(-c4cnn(C)c4)c(OC)nn23)c1`, for which the IC50 in data set [1] was determined as 11 nM; in data set [2], 180 nM; in data set [3], 348 nM.

In the case of `CNC(=O)c1cncc(-c2cnc3cc(-c4cnn(C)c4)c(OC4CCOC4)nn23)c1` (configuration not stated), the inhibition at 5 µM on CYP3A4 came to 0%. Besides, the IC50 in data set [1] was 7300 nM; in [2], 284 nM; in data set [3], 370 nM; on Cytochrome P450 3A4 it was greater than 5000 nM.

Source of the values: ChEMBL document CHEMBL5096240, “Discovery of Potent and Selective Inhibitors of Wild-Type and Gatekeeper Mutant Fibroblast Growth Factor Receptor (FGFR) 2/3” (J Med Chem, 2022).
